We go through two compounds from PMC10083437, “Small molecules targeting Pin1 as potent anticancer drugs” (Frontiers in Pharmacology, 2023).

Read-outs that look alike come from different tables or passages of the source.

Assay [1] has as its target T1, Pin1 (Homo sapiens, UniProt Q13526).
T1 construct: human Pin1 with C-terminal His tag (pET-30a-pin1, E. coli BL21)
Nature of the assay: SPR (Biacore S200, Pin1 immobilized on CM5); also PPIase assay IC50 […]. Type of assay: binding. In general terms: In SPR one partner is held on a chip, and binding of the other changes the refractive index at the surface.

Assay [2] concerns the target T1, Pin1. The assay is described as above. Type of assay: binding. The source holds these as a separate data set.

T1 sequence (Q13526 whole entry): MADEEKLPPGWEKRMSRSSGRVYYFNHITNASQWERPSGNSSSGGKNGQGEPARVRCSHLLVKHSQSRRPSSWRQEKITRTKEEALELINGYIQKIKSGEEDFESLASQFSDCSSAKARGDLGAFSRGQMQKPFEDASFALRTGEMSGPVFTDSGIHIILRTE

In the case of `NS(=O)(=O)c1ccc(-c2[nH]c3ccc(Cl)cc3c2-c2ccc(Cl)cc2)cc1` [HWH8-33, 2-(4-aminosulfonylphenyl)-3-(4-chlorophenyl)-5-chloro-indole], the Kd at Pin1 [1] was determined as 9.79 µM. This lies in the single-digit micromolar range.

Turning to `NS(=O)(=O)c1ccc(-c2[nH]c3ccc(Cl)cc3c2-c2cccc(Cl)c2)cc1` [HWH8-36, 2-(4-aminosulfonylphenyl)-3-(3-chlorophenyl)-5-chloro-indole], on Pin1 [2], the dissociation constant (Kd) was found to be 4.87 µM.

As usually defined, the Kd is the free concentration of one partner at which half of the binding sites on the other are occupied at equilibrium, for simple one-to-one binding.
